The subject of this experiment is Candida albicans. The experiment in a line: Fungicidal effect, ratio of colony forming units to total cell number. To be noted: 0.625 μg AmB/ml, after 30 hours of incubation. The experiment is classed as cell-based. The protocol: Aliquots of yeast cells (50 μl) were removed from the 96 well plates and serially diluted (up to 1:10000 for plating onto agar plates) and counted using a hemocytometer. Fifty μl of the diluted yeast cells were plated onto YPD agar plates and incubated for 24 hours at 37° C. Yeast colonies were counted using a BioRad Fluor-S Multi-Imager equipped with Quanitity One™ software.
Yeast cells treated with AmBisome, AmB/DMSO and AmB/cochleates (0.625 μg AmB/ml) were examined for the ratio of colony forming units to total cell number after 30 hours of incubation. […] The AmBisome was not as effective, resulting in 52% yeast viability (FIG. 7).

Here are results for one molecule from patent publication US6592894B1, “Hydrogel-isolated cochleate formulations, process of preparation and their use for the delivery of biologically relevant molecules” (BioDelivery Sciences International, Inc., priority 1999, dated 2003).

With `C[C@@H]1[C@H](O)[C@@H](C)/C=C/C=C/C=C/C=C/C=C/C=C/C=C/[C@H](O[C@@H]2O[C@H](C)[C@@H](O)[C@H](N)[C@@H]2O)C[C@@H]2O[C@](O)(C[C@@H](O)C[C@@H](O)[C@H](O)CC[C@@H](O)C[C@@H](O)CC(=O)O[C@H]1C)C[C@H](O)[C@H]2C(=O)O` [AmB/DMSO, Amphotericin B], the “yeast viability (ratio of colony forming units to total cell number)” value was found to be 12%.
